#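 Five concentrations, 48 hours, 96-well plates. GI50 = concentration required for 50% inhibition of growth. Definition used: TGI = concentration required for complete inhibition of growth.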
# What was measured:
# Assay in all cases: inhibition of tumour cell growth, NCI panel, 48 h
# SK-MEL-5 melanoma = tested on: SK-MEL-5 melanoma
# MDA-MB-231 breast = tested on: MDA-MB-231 breast
# A498 renal = tested on: A498 renal
# CCRF-CEM leukemia = tested on: CCRF-CEM leukemia
# SN12C renal = tested on: SN12C renal
# HL-60(TB) leukemia = tested on: HL-60(TB) leukemia
# M14 melanoma = tested on: M14 melanoma
# SR leukemia = tested on: SR leukemia
# UACC-62 melanoma = tested on: UACC-62 melanoma
# RPMI-8226 leukemia = tested on: RPMI-8226 leukemia
# NCI/ADR-RES ovarian = tested on: NCI/ADR-RES ovarian
# PC-3 prostate = tested on: PC-3 prostate
# HCC-2998 colon = tested on: HCC-2998 colon
# UACC-257 melanoma = tested on: UACC-257 melanoma
# T-47D breast = tested on: T-47D breast
# TK-10 renal = tested on: TK-10 renal
# HS 578T breast = tested on: HS 578T breast
# IGROV1 ovarian = tested on: IGROV1 ovarian
# SW-620 colon = tested on: SW-620 colon
# SF-295 CNS = tested on: SF-295 CNS
# ACHN renal = tested on: ACHN renal
# NCI-H522 lung = tested on: NCI-H522 lung
# CAKI-1 renal = tested on: CAKI-1 renal
# MALME-3M melanoma = tested on: MALME-3M melanoma
# RXF 393 renal = tested on: RXF 393 renal
# K-562 leukemia = tested on: K-562 leukemia
# SNB-75 CNS = tested on: SNB-75 CNS
# SNB-19 CNS = tested on: SNB-19 CNS
# HOP-62 NSCLC = tested on: HOP-62 NSCLC
# NCI-H226 lung = tested on: NCI-H226 lung
# SK-MEL-2 melanoma = tested on: SK-MEL-2 melanoma
# SF-268 CNS = tested on: SF-268 CNS
# U251 CNS = tested on: U251 CNS
# BT-549 breast = tested on: BT-549 breast
# MDA-MB-435 = tested on: MDA-MB-435
# MOLT-4 leukemia = tested on: MOLT-4 leukemia
# MCF7 breast = tested on: MCF7 breast
# OVCAR-5 ovarian = tested on: OVCAR-5 ovarian
# COLO 205 colon = tested on: COLO 205 colon
# UO-31 renal = tested on: UO-31 renal
# SK-MEL-28 melanoma = tested on: SK-MEL-28 melanoma
# HOP-92 NSCLC = tested on: HOP-92 NSCLC
# NCI-H23 lung = tested on: NCI-H23 lung
# A549 NSCLC = tested on: A549 NSCLC
# 786-0 renal = tested on: 786-0 renal
# NCI-H460 lung = tested on: NCI-H460 lung
# LOX IMVI melanoma = tested on: LOX IMVI melanoma
# OVCAR-4 ovarian = tested on: OVCAR-4 ovarian
# HCT-116 colon = tested on: HCT-116 colon
# EKVX NSCLC = tested on: EKVX NSCLC
# DU-145 prostate = tested on: DU-145 prostate
# HCT-15 colon = tested on: HCT-15 colon
# OVCAR-8 ovarian = tested on: OVCAR-8 ovarian
# KM12 colon = tested on: KM12 colon
# SK-OV-3 ovarian = tested on: SK-OV-3 ovarian
# HT29 colon = tested on: HT29 colon
# SF-539 CNS = tested on: SF-539 CNS
structure (smiles),measurement,setting,value
COC(=O)C[Se]C(=O)Cc1c(C)n(C(=O)c2ccc(Cl)cc2)c2ccc(OC)cc12,GI50,SK-MEL-5 melanoma,1.83 µM
same,TGI,SK-MEL-5 melanoma,3.42 µM
same,GI50,MDA-MB-231 breast,2.27 µM
same,TGI,MDA-MB-231 breast,5.89 µM
same,GI50,A498 renal,2.43 µM
same,TGI,A498 renal,6.36 µM
same,GI50,CCRF-CEM leukemia,3.04 µM
same,TGI,CCRF-CEM leukemia,16.8 µM
same,GI50,SN12C renal,3.09 µM
same,TGI,SN12C renal,10.9 µM
same,GI50,HL-60(TB) leukemia,2.9 µM
same,TGI,HL-60(TB) leukemia,19.7 µM
same,GI50,M14 melanoma,1.64 µM
same,TGI,M14 melanoma,4.91 µM
same,GI50,SR leukemia,3.74 µM
same,TGI,SR leukemia,> 100 µM
same,GI50,UACC-62 melanoma,2.85 µM
same,TGI,UACC-62 melanoma,14 µM
same,GI50,RPMI-8226 leukemia,3.36 µM
same,TGI,RPMI-8226 leukemia,22.9 µM
same,GI50,NCI/ADR-RES ovarian,2.41 µM
same,TGI,NCI/ADR-RES ovarian,6.92 µM
same,GI50,PC-3 prostate,3.91 µM
same,TGI,PC-3 prostate,15.5 µM
same,GI50,HCC-2998 colon,4.96 µM
same,TGI,HCC-2998 colon,16.9 µM
same,GI50,UACC-257 melanoma,2.17 µM
same,TGI,UACC-257 melanoma,7.37 µM
same,GI50,T-47D breast,7.32 µM
same,TGI,T-47D breast,38 µM
same,GI50,TK-10 renal,3.72 µM
same,TGI,TK-10 renal,18.2 µM
same,GI50,HS 578T breast,2.33 µM
same,TGI,HS 578T breast,8.84 µM
same,GI50,IGROV1 ovarian,2.1 µM
same,TGI,IGROV1 ovarian,4.91 µM
same,GI50,SW-620 colon,2.03 µM
same,TGI,SW-620 colon,4.39 µM
same,GI50,SF-295 CNS,2.21 µM
same,TGI,SF-295 CNS,4.92 µM
same,GI50,ACHN renal,3.36 µM
same,TGI,ACHN renal,10.2 µM
same,GI50,NCI-H522 lung,9.61 µM
same,TGI,NCI-H522 lung,28.8 µM
same,GI50,CAKI-1 renal,2.63 µM
same,TGI,CAKI-1 renal,6.85 µM
same,GI50,MALME-3M melanoma,1.81 µM
same,TGI,MALME-3M melanoma,5.31 µM
same,GI50,RXF 393 renal,1.73 µM
same,TGI,RXF 393 renal,5.28 µM
same,GI50,K-562 leukemia,5.3 µM
same,TGI,K-562 leukemia,> 100 µM
same,GI50,SNB-75 CNS,1.8 µM
same,TGI,SNB-75 CNS,4.17 µM
same,GI50,SNB-19 CNS,3.32 µM
same,TGI,SNB-19 CNS,12.4 µM
same,GI50,HOP-62 NSCLC,1.74 µM
same,TGI,HOP-62 NSCLC,4.14 µM
same,GI50,NCI-H226 lung,2.03 µM
same,TGI,NCI-H226 lung,6.53 µM
same,GI50,SK-MEL-2 melanoma,2.44 µM
same,TGI,SK-MEL-2 melanoma,7.79 µM
same,GI50,SF-268 CNS,3.18 µM
same,TGI,SF-268 CNS,12.3 µM
same,GI50,U251 CNS,2.38 µM
same,TGI,U251 CNS,5.8 µM
same,GI50,BT-549 breast,1.91 µM
same,TGI,BT-549 breast,4.21 µM
same,GI50,MDA-MB-435,1.75 µM
same,TGI,MDA-MB-435,3.43 µM
same,GI50,MOLT-4 leukemia,5.29 µM
same,TGI,MOLT-4 leukemia,90.1 µM
same,GI50,MCF7 breast,2.57 µM
same,TGI,MCF7 breast,11.3 µM
same,GI50,OVCAR-5 ovarian,2.21 µM
same,TGI,OVCAR-5 ovarian,6 µM
same,GI50,COLO 205 colon,1.83 µM
same,TGI,COLO 205 colon,4.4 µM
same,GI50,UO-31 renal,1.52 µM
same,TGI,UO-31 renal,8.03 µM
same,GI50,SK-MEL-28 melanoma,3.26 µM
same,TGI,SK-MEL-28 melanoma,12 µM
same,GI50,HOP-92 NSCLC,1.98 µM
same,TGI,HOP-92 NSCLC,4.27 µM
same,GI50,NCI-H23 lung,2.41 µM
same,TGI,NCI-H23 lung,6.41 µM
same,GI50,A549 NSCLC,1.96 µM
same,TGI,A549 NSCLC,4.63 µM
same,GI50,786-0 renal,2.64 µM
same,TGI,786-0 renal,6.58 µM
same,GI50,NCI-H460 lung,2.62 µM
same,TGI,NCI-H460 lung,8.34 µM
same,GI50,LOX IMVI melanoma,1.81 µM
same,TGI,LOX IMVI melanoma,3.79 µM
same,GI50,OVCAR-4 ovarian,2.27 µM
same,TGI,OVCAR-4 ovarian,8.1 µM
same,GI50,HCT-116 colon,1.8 µM
same,TGI,HCT-116 colon,4.21 µM
same,GI50,EKVX NSCLC,1.71 µM
same,TGI,EKVX NSCLC,4.26 µM
same,GI50,DU-145 prostate,2.72 µM
same,TGI,DU-145 prostate,8.01 µM
same,GI50,HCT-15 colon,2.2 µM
same,TGI,HCT-15 colon,6.03 µM
same,GI50,OVCAR-8 ovarian,2.27 µM
same,TGI,OVCAR-8 ovarian,6.22 µM
same,GI50,KM12 colon,3.06 µM
same,TGI,KM12 colon,12.6 µM
same,GI50,SK-OV-3 ovarian,5.57 µM
same,TGI,SK-OV-3 ovarian,19.2 µM
same,GI50,HT29 colon,2.84 µM
same,TGI,HT29 colon,8.17 µM
same,GI50,SF-539 CNS,2.7 µM
same,TGI,SF-539 CNS,7.69 µM

# From PubChem BioAssay (NCI)
